According to patent US20240398814A1, “KRAS INHIBITOR AND HDAC INHIBITOR COMBINATION FOR THE TREATMENT OF CANCER” (Northwestern University, priority 2023, published 2024):

Tests used:
A549 cells = experiment: qRT-PCR of chemokine gene expression in A549 cells; type: cell-based, human; details: 2 uM entinostat 3 days, 5 uM BRD3308 4 days
Experimental: All cell lines were incubated at 37° C. and were maintained in an atmosphere containing 5% CO2. Cells were tested for Mycoplasma (Lonza) using manufacturer's conditions and were deemed negative. Cells were grown in Dulbecco's modified Eagles medium (DMEM) plus 10% fetal bovine serum (Gibco) and were continuously maintained under antibiotic selection for stable cell lines. Proliferation assays were performed by plating 2×10^3 cells per well of a 6-well plate, and cells were counted 5 days post-plating. Drug treatments were carried out using the following doses: entinostat 1 uM or 2 uM, RGFP966 10uM, TSA 0.5 uM, BRD3308 5 uM, trametinib 5 nM, 10 nM, and 25 nM, and MRTX1133 10 nM, 25 nM, and 50 nM, as indicated for the indicated treatment lengths. Media was changed and fresh drug added every 2 days.
(§1) mRNA was prepared using the Quick-RNA Miniprep kit (Zymo Research), including DNase treatment. cDNA was synthesized from 2 μg of RNA using SuperScript III (Life Technologies), and qPCR was carried out with diluted cDNA, appropriate primers, and SYBR Green PCR master mix (ThermoFisher Scientific) using a C1000 Thermal Cycler (BioRad). Relative mRNA levels were calculated using the delta Ct method, using Tbp as an internal control.

KL NSCLC GEMM = experiment: Short-term (5 day) in vivo entinostat treatment, qRT-PCR on lung tumors and liver; design: species or system mouse; details: 10 mg/kg/day entinostat, oral gavage, 5 days
Experimental: KL mice were intratracheally intubated with lentivirus expressing Cre recombinase to initiate tumorigenesis and imaged biweekly by BLI starting 4 weeks after Cre administration. When tumor burden in all mice was greater than 5×107 photons/see as determined by BLI, treatment was initiated. Mice were randomized and treated daily by oral gavage for 5 days with vehicle or 10 mg/kg entinostat. In vivo treatment doses were selected based on publications (39, 69-71). Entinostat was diluted to 1 mg/mL in vehicle (0.5% Methyl cellulose in water), vortexed, sonicated 10 minutes, and administered at 10 mg/kg. Drug and vehicle was administered starting at ˜9am daily throughout the duration of treatment. The experiment was terminated after 5 days of treatment, at which time primary lung tumors and liver were isolated by dissection and immediately flash frozen.
as §1
Next, pharmacological inhibition of HDAC3 was assessed for impacting HRCG expression in vivo as observed in cell culture experiments (FIG. 12B, 18D-G). Lung tumorigenesis was initiated in KL GEMM mice, and disease growth was monitored over time using bioluminescence imaging (BLI) potentiated by the Rosa26^LSL-luferase genetic allele. When tumor burden was established in all mice (BLI >5×10^7 photons/sec), mice were randomized and treatment was initiated. Mice were treated daily for 5 days with vehicle or 10 mg/kg/day entinostat administered by oral gavage, after which lung tumors and liver were collected (FIG. 14C). Using qRT-PCR, gene expression of HDAC3 target genes in lung tumors and liver was assessed. […] To confirm that entinostat treatment was engaging on-target effects in the liver samples, the gene expression of canonical HDAC3 liver target genes Nr1d1 and Arntl was assessed (FIG. 14E).

KL lung tumors = experiment: 6-week in vivo entinostat and trametinib treatment, flow cytometry immune profiling; design: species or system mouse; details: 6 weeks; percentage of total CD45+ cells
Experimental: The 6-week duration study was carried out according to the same experimental design except for the following: To ensure an extended treatment duration, treatment was initiated after tumor burden was detected by BLI in >30% of mice in the study. Entinostat was administered at a dose of 10 mg/kg to assess systemic drug impact at a dose corresponding to potent tumor growth control. Because mice were gavaged twice daily for an extended duration, an additional drug holiday was built into the dosing schedule starting after 3 weeks of treatment; mice were administered drug using the following schedule: 4 days on, 1 day off, 1 day on, and 1 day off (imaging day).
Tumor digestion and cell isolation: Lungs were removed from the chest, washed with PBS, dried on paper towels and then tumor nodules were excised from adjacent tissue and both adjacent tissue and nodules were weighed. Nodules or adjacent tissue was minced into small pieces and suspended in digestion media consisting of RPMI 1640 with 2% FBS, 0.5 ug/mL of DNase I and 1 unit/mL collagenase Type I (Sigma-Aldrich Cat #0000137295) and placed in an incubator at 37° C. for 45 minutes, shaking once during digestion. […]

[1] = system: human LKB1 mutant lung cancer cells; experiment: FGFR1 resistance mechanism in human LKB1 mutant lung cancer cells; type: cell-based; details: 9 days of trametinib treatment, entinostat treatment days 3-9 (6 days total)

Nc1ccccc1NC(=O)c1ccc(CNC(=O)OCc2cccnc2)cc1 [entinostat]
chemokine (SASP) gene expression (A549 cells): induced the expression of these genes | Cxc110 expression in vivo, lung tumors versus liver (KL NSCLC GEMM): induced upon entinostat treatment selectively in lung tumor cells | HRCG expression in livers from the same mice (KL NSCLC GEMM): did not induce HRCG expression | HRCG expression in lung tumors (KL NSCLC GEMM): potently induced HRCG expression | Nr1d1 and Arntl gene expression in the liver (KL NSCLC GEMM): impacted Nr1d1 and Arntl gene expression in the liver | gMDSCs in lung tumors (KL lung tumors): No changes were observed | impact of Trametinib on the FGFR1 resistance mechanism [1]: reverses the impact of Trametinib on the FGFR1 resistance mechanism
